Source: PubChem BioAssay (NCI)
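Test compounds were applied to cells in 96-well plates for 48 hours at 5 doses. TGI is the concentration that stops growth completely.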

Columns and labels:
Experiment in all cases: DTP human tumour cell line panel, 48 h
OVCAR-3 ovarian = system: OVCAR-3 ovarian
K-562 leukemia = system: K-562 leukemia
LOX IMVI melanoma = system: LOX IMVI melanoma
T-47D breast = system: T-47D breast
MOLT-4 leukemia = system: MOLT-4 leukemia
SK-MEL-28 melanoma = system: SK-MEL-28 melanoma
MCF7 breast = system: MCF7 breast
MDA-N = system: MDA-N
A549 NSCLC = system: A549 NSCLC
SNB-19 CNS = system: SNB-19 CNS
HCC-2998 colon = system: HCC-2998 colon
UACC-257 melanoma = system: UACC-257 melanoma
RXF 393 renal = system: RXF 393 renal
HCT-116 colon = system: HCT-116 colon
COLO 205 colon = system: COLO 205 colon
TK-10 renal = system: TK-10 renal
786-0 renal = system: 786-0 renal
SR leukemia = system: SR leukemia
NCI-H522 lung = system: NCI-H522 lung
SW-620 colon = system: SW-620 colon
HT29 colon = system: HT29 colon
NCI-H460 lung = system: NCI-H460 lung
SNB-75 CNS = system: SNB-75 CNS
SF-295 CNS = system: SF-295 CNS
NCI-H23 lung = system: NCI-H23 lung
HCT-15 colon = system: HCT-15 colon
U251 CNS = system: U251 CNS
IGROV1 ovarian = system: IGROV1 ovarian
CCRF-CEM leukemia = system: CCRF-CEM leukemia
RPMI-8226 leukemia = system: RPMI-8226 leukemia
BT-549 breast = system: BT-549 breast
SN12C renal = system: SN12C renal
HL-60(TB) leukemia = system: HL-60(TB) leukemia
UACC-62 melanoma = system: UACC-62 melanoma
DU-145 prostate = system: DU-145 prostate
SK-OV-3 ovarian = system: SK-OV-3 ovarian
EKVX NSCLC = system: EKVX NSCLC
MDA-MB-231 breast = system: MDA-MB-231 breast
SF-539 CNS = system: SF-539 CNS
OVCAR-5 ovarian = system: OVCAR-5 ovarian
M14 melanoma = system: M14 melanoma
OVCAR-8 ovarian = system: OVCAR-8 ovarian
SK-MEL-5 melanoma = system: SK-MEL-5 melanoma
MDA-MB-435 = system: MDA-MB-435
PC-3 prostate = system: PC-3 prostate
HOP-62 NSCLC = system: HOP-62 NSCLC
OVCAR-4 ovarian = system: OVCAR-4 ovarian
SF-268 CNS = system: SF-268 CNS
UO-31 renal = system: UO-31 renal
HOP-92 NSCLC = system: HOP-92 NSCLC
NCI/ADR-RES ovarian = system: NCI/ADR-RES ovarian
HS 578T breast = system: HS 578T breast
KM12 colon = system: KM12 colon
CAKI-1 renal = system: CAKI-1 renal
ACHN renal = system: ACHN renal
SK-MEL-2 melanoma = system: SK-MEL-2 melanoma

Measured: TGI

C(=C\c1ccccc1)/Cn1nc(-c2ccccc2)nc1-c1cnccn1
not listed: NCI/ADR-RES ovarian | HS 578T breast | KM12 colon | CAKI-1 renal | ACHN renal | SK-MEL-2 melanoma
> 100 µM: all other assays above

C[C@@H]1C(=O)O[C@@H]2C[C@@]1(C)[C@@H]1C(=O)C3(O)OC14C2(C)OC(=O)[C@@]4(O)CCC1C3C(O)C=C2CC=CC(=O)[C@@]21C (stereo not given in full)
53.5 µM: SF-539 CNS
61.3 µM: RPMI-8226 leukemia
48.2 µM: HCT-116 colon
37.8 µM: SNB-19 CNS
79.4 µM: MDA-MB-435
90.8 µM: M14 melanoma
54.2 µM: SNB-75 CNS
71.1 µM: KM12 colon
57.1 µM: MOLT-4 leukemia
40.7 µM: CCRF-CEM leukemia
67.9 µM: OVCAR-5 ovarian
54.4 µM: SK-MEL-28 melanoma
62.9 µM: SK-MEL-2 melanoma
40.8 µM: HL-60(TB) leukemia
87.9 µM: UO-31 renal
50.7 µM: HS 578T breast
47.8 µM: SR leukemia
83.7 µM: SF-295 CNS
91 µM: HT29 colon
32.8 µM: RXF 393 renal
not listed: OVCAR-3 ovarian | LOX IMVI melanoma | NCI-H522 lung | NCI-H23 lung | BT-549 breast | HOP-92 NSCLC
> 100 µM: all other assays above
